Measurements published in ChEMBL document CHEMBL1143152, “Calcitonin gene-related peptide (CGRP) receptor antagonists: investigations of a pyridinone template” (Bioorg Med Chem Lett, 2008).
One block for each compound: values may come before it.

Experiments:
[1] = molecular target: T1, Calcitonin gene-related peptide type 1 receptor (Homo sapiens, UniProt O60894+Q16602); assay: Displacement of [125I]CGRP from human recombinant CL receptor /RAMP1
[2] = molecular target: T1, Calcitonin gene-related peptide type 1 receptor; assay: Antagonist activity at human recombinant CL receptor /RAMP1 assessed as inhibition of cAMP accumulation by cell based assay; format: functional
[3] = molecular target: T1, Calcitonin gene-related peptide type 1 receptor; assay: Antagonist activity at human recombinant CL receptor /RAMP1 assessed as inhibition of cAMP accumulation in presence of 50% human serum by cell based assay; format: functional
[4] = Half life in rat at 2.0 mg/kg, iv and 10 mg/kg, po; format: ADME, organism-based; conditions: in vivo
[5] = Clearance in rat at 2.0 mg/kg, iv and 10 mg/kg, po; format: ADME, organism-based; conditions: in vivo
[6] = Cmax in rat at 2.0 mg/kg, iv and 10 mg/kg, po; format: ADME, organism-based; conditions: in vivo
[7] = Bioavailability in rat at 10 mg/kg, po; format: ADME, organism-based; conditions: in vivo
[8] = Half life in dog at 0.5 mg/kg, iv and 1.0 mg/kg, po; format: ADME, organism-based, Canis lupus familiaris; conditions: in vivo
[9] = Clearance in dog at 0.5 mg/kg, iv and 1.0 mg/kg, po; format: ADME, organism-based, Canis lupus familiaris; conditions: in vivo
[10] = Cmax in dog at 0.5 mg/kg, iv and 1.0 mg/kg, po; format: ADME, organism-based, Canis lupus familiaris; conditions: in vivo
[11] = Bioavailability in dog at 1.0 mg/kg, po; format: ADME, organism-based, Canis lupus familiaris; conditions: in vivo

T1 sequence (Q16602 whole entry, one chain of several): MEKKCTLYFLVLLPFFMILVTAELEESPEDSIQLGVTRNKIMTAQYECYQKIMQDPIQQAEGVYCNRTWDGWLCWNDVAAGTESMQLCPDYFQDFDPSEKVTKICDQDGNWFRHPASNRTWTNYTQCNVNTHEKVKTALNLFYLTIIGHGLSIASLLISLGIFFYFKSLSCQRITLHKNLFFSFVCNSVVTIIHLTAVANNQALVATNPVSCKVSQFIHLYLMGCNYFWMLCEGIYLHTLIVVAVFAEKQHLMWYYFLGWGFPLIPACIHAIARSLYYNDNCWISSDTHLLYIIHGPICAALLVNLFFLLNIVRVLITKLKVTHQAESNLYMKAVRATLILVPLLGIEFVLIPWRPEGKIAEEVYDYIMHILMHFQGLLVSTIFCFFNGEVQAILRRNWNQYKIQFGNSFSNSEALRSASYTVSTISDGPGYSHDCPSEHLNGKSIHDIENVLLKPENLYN

Ki [1]: 80 nM
IC50 [2]: 360 nM
Compound: O=C(Nc1cc(-c2ccccc2)cn(CC2CC2)c1=O)N1CCC(n2cc(-c3ccccc3)[nH]c2=O)CC1

Ki [1]: 155 nM
IC50 [2]: 337 nM
Compound: Cn1cc(-c2cccc(F)c2)cc(NC(=O)N2CCC(n3c(=O)[nH]c4ncccc43)CC2)c1=O

Ki [1]: 2050 nM
Compound: Cn1cc(C2C=NC=N2)cc(NC(=O)N2CCC(n3c(=O)[nH]c4ncccc43)CC2)c1=O (stereo not given)

Ki [1]: 170 nM
IC50 [2]: 302 nM
Compound: O=C(Nc1cc(-c2ccccc2)cn(CC2CC2)c1=O)N1CCC(n2c(=O)[nH]c3ncccc32)CC1

Ki [1]: 695 nM
IC50 [2]: 1190 nM
Compound: COCCn1cc(-c2cccnc2)cc(NC(=O)N2CCC(n3c(=O)[nH]c4ncccc43)CC2)c1=O

Ki [1]: 17 nM
IC50 [2]: 18 nM
IC50 [3]: 811 nM
half-life [4]: 6.3 h
clearance [5]: 0.8 mL/min/kg
Cmax [6]: 9.4 µM
bioavailability [7]: 34%
half-life [8]: 3.3 h
clearance [9]: 0.2 mL/min/kg
Cmax [10]: 9.4 µM
bioavailability [11]: 65%
Compound: O=C(Nc1cc(-c2cccc(F)c2F)cn(CC(F)(F)F)c1=O)N1CCC(n2c(=O)[nH]c3ncccc32)CC1

Ki [1]: 205 nM
IC50 [2]: 550 nM
IC50 [3]: 1420 nM
Compound: O=C(Nc1cc(-c2ccn[nH]2)cn(CC(F)(F)F)c1=O)N1CCC(n2c(=O)[nH]c3ncccc32)CC1

Ki [1]: 213 nM
IC50 [2]: 477 nM
Compound: Cn1cc(-c2ccccc2F)cc(NC(=O)N2CCC(n3c(=O)[nH]c4ncccc43)CC2)c1=O

Ki [1]: 270 nM
IC50 [2]: 1070 nM
Compound: Cn1cc(-c2cccnc2)cc(NC(=O)N2CCC(n3c(=O)[nH]c4ncccc43)CC2)c1=O

Ki [1]: 105 nM
IC50 [2]: 345 nM
half-life [4]: 0.9 h
clearance [5]: 9.6 mL/min/kg
Cmax [6]: 5.1 µM
bioavailability [7]: 44%
Compound: O=C(Nc1cc(-c2ccsc2)cn(CC(F)(F)F)c1=O)N1CCC(n2c(=O)[nH]c3ncccc32)CC1

Ki [1]: 498 nM
IC50 [2]: 495 nM
IC50 [3]: 10900 nM
half-life [4]: 3 h
clearance [5]: 1.3 mL/min/kg
Cmax [6]: 20.3 µM
bioavailability [7]: 40%
Compound: Cn1cc(-c2ccccc2)cc(NC(=O)N2CCC(n3c(=O)[nH]c4ncccc43)CC2)c1=O

Ki [1]: 42 nM
IC50 [2]: 142 nM
IC50 [3]: 715 nM
Compound: Cn1cc(-c2cccc(O)c2)cc(NC(=O)N2CCC(n3c(=O)[nH]c4ncccc43)CC2)c1=O

Ki [1]: 220 nM
IC50 [2]: 827 nM
Compound: Cn1cc(-c2ccccc2O)cc(NC(=O)N2CCC(n3c(=O)[nH]c4ncccc43)CC2)c1=O

Ki [1]: 71 nM
IC50 [2]: 184 nM
IC50 [3]: 872 nM
half-life [8]: 1.2 h
clearance [9]: 2.8 mL/min/kg
Cmax [10]: 0.3 µM
bioavailability [11]: 6%
Compound: Cn1cc(C2C=CN=N2)cc(NC(=O)N2CCC(n3c(=O)[nH]c4ncccc43)CC2)c1=O (stereo not given)

Ki [1]: 1750 nM
Compound: Cn1cc(-c2ccc(S(C)(=O)=O)cc2)cc(NC(=O)N2CCC(n3c(=O)[nH]c4ncccc43)CC2)c1=O

Ki [1]: 228 nM
IC50 [2]: 665 nM
half-life [4]: 0.5 h
clearance [5]: 25.3 mL/min/kg
Cmax [6]: 1.3 µM
bioavailability [7]: 37%
Compound: COCCn1cc(-c2ccccc2)cc(NC(=O)N2CCC(n3c(=O)[nH]c4ncccc43)CC2)c1=O

Ki [1]: 1900 nM
Compound: Cn1cc(-c2ncccn2)cc(NC(=O)N2CCC(n3c(=O)[nH]c4ncccc43)CC2)c1=O

Ki [1]: 54 nM
IC50 [2]: 186 nM
Compound: O=C(Nc1cc(-c2ccccc2F)cn(CC(F)(F)F)c1=O)N1CCC(n2c(=O)[nH]c3ncccc32)CC1

Ki [1]: 74 nM
IC50 [2]: 170 nM
IC50 [3]: 280 nM
Compound: COCCn1cc(-c2ccc(O)cc2)cc(NC(=O)N2CCC(n3c(=O)[nH]c4ncccc43)CC2)c1=O

Ki [1]: 3400 nM
Compound: O=C(Nc1ccc(-c2ccccc2)n(CC2CC2)c1=O)N1CCC(n2cc(-c3ccccc3)[nH]c2=O)CC1

Ki [1]: 390 nM
IC50 [2]: 540 nM
half-life [4]: 2.8 h
clearance [5]: 23.5 mL/min/kg
Cmax [6]: 0.08 µM
bioavailability [7]: 1%
Compound: COCCn1cc(-c2ccsc2)cc(NC(=O)N2CCC(n3c(=O)[nH]c4ncccc43)CC2)c1=O

Ki [1]: 9000 nM
Compound: Cn1cc(-c2ccc(C(=O)O)cc2)cc(NC(=O)N2CCC(n3c(=O)[nH]c4ncccc43)CC2)c1=O

Ki [1]: 166 nM
IC50 [2]: 567 nM
Compound: Cn1cc(-c2cccc(F)c2F)cc(NC(=O)N2CCC(n3c(=O)[nH]c4ncccc43)CC2)c1=O

Ki [1]: 635 nM
IC50 [2]: 651 nM
half-life [8]: 5.4 h
clearance [9]: 0.3 mL/min/kg
Cmax [10]: 7.4 µM
bioavailability [11]: 56%
Compound: O=C(Nc1cc(-c2cccnc2)cn(CC(F)(F)F)c1=O)N1CCC(n2c(=O)[nH]c3ncccc32)CC1

Ki [1]: 140 nM
IC50 [2]: 307 nM
IC50 [3]: 394 nM
Compound: COCCn1cc(-c2ccn[nH]2)cc(NC(=O)N2CCC(n3c(=O)[nH]c4ncccc43)CC2)c1=O

Ki [1]: 41 nM
IC50 [2]: 164 nM
IC50 [3]: 1000 nM
Compound: COCCn1cc(-c2cccc(F)c2F)cc(NC(=O)N2CCC(n3c(=O)[nH]c4ncccc43)CC2)c1=O

Ki [1]: 95 nM
IC50 [2]: 209 nM
half-life [4]: 2.5 h
clearance [5]: 2.3 mL/min/kg
Cmax [6]: 5.3 µM
bioavailability [7]: 31%
half-life [8]: 3.7 h
clearance [9]: 0.2 mL/min/kg
Cmax [10]: 10.3 µM
bioavailability [11]: 58%
Compound: O=C(Nc1cc(-c2ccccc2)cn(CC(F)(F)F)c1=O)N1CCC(n2c(=O)[nH]c3ncccc32)CC1

Ki [1]: 75 nM
IC50 [2]: 330 nM
half-life [4]: 1 h
clearance [5]: 8.9 mL/min/kg
Cmax [6]: 7.4 µM
bioavailability [7]: 47%
Compound: Cn1cc(-c2ccsc2)cc(NC(=O)N2CCC(n3c(=O)[nH]c4ncccc43)CC2)c1=O

Ki [1]: 96 nM
IC50 [2]: 282 nM
IC50 [3]: 971 nM
Compound: O=C(Nc1cc(-c2ccc(O)cc2)cn(CC(F)(F)F)c1=O)N1CCC(n2c(=O)[nH]c3ncccc32)CC1

Ki [1]: 495 nM
IC50 [2]: 1530 nM
Compound: COc1ccc(-c2cc(NC(=O)N3CCC(n4c(=O)[nH]c5ncccc54)CC3)c(=O)n(C)c2)cc1

Ki [1]: 42 nM
IC50 [2]: 119 nM
Compound: O=C(Nc1cc(-c2cccc(F)c2)cn(CC(F)(F)F)c1=O)N1CCC(n2c(=O)[nH]c3ncccc32)CC1

Ki [1]: 43 nM
IC50 [2]: 88 nM
half-life [4]: 1.1 h
clearance [5]: 16.1 mL/min/kg
Cmax [6]: 0.1 µM
bioavailability [7]: 2%
half-life [8]: 2.9 h
clearance [9]: 0.6 mL/min/kg
Cmax [10]: 0.6 µM
bioavailability [11]: 3%
Compound: Cn1cc(-c2ccc(O)cc2)cc(NC(=O)N2CCC(n3c(=O)[nH]c4ncccc43)CC2)c1=O
